From US7576222B2, “Alkynyl-containing tryptophan derivative inhibitors of TACE/matrix metalloproteinase” (priority 2004, dated 2009) come the findings set out here.

The target in one experiment is T1, catalytic domain of the recombinant TACE protein (Homo sapiens, UniProt P78536).
T1 construct: The catalytic domain of the recombinant TACE protein was expressed and purified; made in house
T1 sequence (P78536 223-474 limits assumed): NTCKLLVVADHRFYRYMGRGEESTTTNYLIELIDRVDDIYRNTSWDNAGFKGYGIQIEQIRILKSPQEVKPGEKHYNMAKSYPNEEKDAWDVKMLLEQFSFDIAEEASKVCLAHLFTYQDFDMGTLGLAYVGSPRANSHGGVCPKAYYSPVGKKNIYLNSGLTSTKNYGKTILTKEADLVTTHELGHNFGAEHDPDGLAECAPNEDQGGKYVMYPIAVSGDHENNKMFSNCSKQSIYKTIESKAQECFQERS
The experiment is described as follows: TACE FRET assay using TACE cat. The class given is biochemical.
Conditions: not given
The procedure: TACE FRET Assay Using TACE Cat
“K” is the IC50. Generally, “n” and “B” are floated, noting that n (Hill slope) should be close to 1 and B (background offset) to 0.
Pro-TNF-α substrate peptide Abz-[…]-Dpa (AnaSpec, San Jose, Calif., WARC-1) was prepared as a 2 mM stock solution in the TACE assay buffer (50 mM Tris-HCl, pH 7.4, 25 mM NaCl, 4% Glycerol, 0.005% Brij 35). The catalytic domain of the recombinant TACE protein was expressed and purified. The TACE protein (1 ug/ml) was pretreated with the inhibitors at various concentrations for 10 min. at room temperature. The reaction was initiated by the addition of the substrate peptide. […] The initial rate (slope) of the reaction was determined using a fluorescence plate reader (Molecular Devices, Spectra Max Gemini XS).
Turning to `CC#CCOc1ccc(S(=O)(=O)N[C@@H](Cc2c[nH]c3ccc(F)cc23)C(=O)O)cc1` [Example 3, N-{[4-(but-2-ynyloxy)phenyl]sulfonyl}-5-fluorotryptophan], the IC50 – broadly, the concentration that gives 50% inhibition – was found to be 1.56 µM.

As for `CC#CCOc1ccc(S(=O)(=O)N[C@@H](Cc2c[nH]c3ccc(O)cc23)C(=O)O)cc1` [Example 5, N-{[4-(but-2-ynyloxy)phenyl]sulfonyl}-5-hydroxytryptophan], the IC50 came out at 1.61 µM.

In the case of `CC#CCOc1ccc(S(=O)(=O)N[C@@H](Cc2c[nH]c3cc(F)ccc23)C(=O)O)cc1` [Example 7, N-{[4-(but-2-ynyloxy)phenyl]sulfonyl}-6-fluorotryptophan], the IC50 was 2.96 µM.

`CC#CCOc1ccc(S(=O)(=O)N[C@@H](Cc2c[nH]c3cc(C)ccc23)C(=O)O)cc1` [Example 8, N-{[4-(but-2-ynyloxy)phenyl]sulfonyl}-6-methyltryptophan]: the IC50 was 1.57 µM.

As for `CC#CCOc1ccc(S(=O)(=O)N[C@H](Cc2cn(C)c3ccccc23)C(=O)O)cc1` [Example 21, N-{[4-(but-2-ynyloxy)phenyl]sulfonyl}-1-methyl-D-tryptophan], the IC50 came out at 1.4 µM.

Turning to `CC#CCOc1ccc(S(=O)(=O)N[C@H](Cc2cn(CC3CCCCC3)c3ccccc23)C(=O)O)cc1` [Example 23, N-{[4-(but-2-ynyloxy)phenyl]sulfonyl}-1-(cyclohexylmethyl)-D-tryptophan], the IC50 stood at 1.71 µM.

As for `CC#CCOc1ccc(S(=O)(=O)N[C@H](Cc2cn(Cc3ccc(C#N)cc3)c3ccccc23)C(=O)O)cc1` [Example 45, N-{[4-(but-2-ynyloxy)phenyl]sulfonyl}-1-(4-cyanobenzyl)-D-tryptophan], the IC50 was 4.04 µM.

Regarding `CC#CCOc1ccc(S(=O)(=O)N[C@@H](Cc2cn(Cc3cccc(OC)c3)c3ccc(OC)cc23)C(=O)O)cc1` [Example 52, N-{[4-(but-2-ynyloxy)phenyl]sulfonyl}-5-methoxy-1-(3-methoxybenzyl)tryptophan], the IC50 stood at 2.24 µM.

Turning to `CC#CCOc1ccc(S(=O)(=O)N[C@@H](Cc2cn(Cc3cccc(C(F)(F)F)c3)c3ccc(OC)cc23)C(=O)O)cc1` [Example 56, N-{[4-(but-2-ynyloxy)phenyl]sulfonyl}-5-methoxy-1-[3-(trifluoromethyl)benzyl]tryptophan], the IC50 was 2.07 µM.

As to `CC#CCOc1ccc(S(=O)(=O)N[C@@H](Cc2cn(Cc3ccccc3F)c3ccc(OC)cc23)C(=O)O)cc1` [Example 58, N-{[4-(but-2-ynyloxy)phenyl]sulfonyl}-1-(2-fluorobenzyl)-5-methoxytryptophan], the IC50 was found to be 2.24 µM.

Still in this experiment, the particulars now being: TACE FRET assay, catalytic domain of recombinant TACE; read-out: TACE IC50.
In the case of `CC#CCOc1ccc(S(=O)(=O)N[C@H](Cc2c[nH]c3ccccc23)C(=O)O)cc1` [Example 1, N-{[4-(but-2-ynyloxy)phenyl]sulfonyl}-D-tryptophan], the IC50 is 2.53 µM.

For the molecule `CC#CCOc1ccc(S(=O)(=O)N[C@@H](Cc2c[nH]c3ccccc23)C(=O)O)cc1` [Example 2, N-{[4-(but-2-ynyloxy)phenyl]sulfonyl}-L-tryptophan], the 50% inhibitory concentration (IC50) stood at 8.2 µM.

For `CC#CCOc1ccc(S(=O)(=O)N[C@@H](Cc2cn(Cc3ccc(OC)cc3)c3ccccc23)C(=O)O)cc1` [Example 19, N-{[4-(but-2-ynyloxy)phenyl]sulfonyl}-1-(4-methoxybenzyl)-L-tryptophan], the IC50 came to 1.19 µM.

As to `CC#CCOc1ccc(S(=O)(=O)N[C@H](Cc2cn(CCCCC)c3ccccc23)C(=O)O)cc1` [Example 22, N-{[4-(but-2-ynyloxy)phenyl]sulfonyl}-1-pentyl-D-tryptophan], the IC50 was determined as 2.31 µM.

Regarding `CC#CCOc1ccc(S(=O)(=O)N[C@H](Cc2cn(Cc3ccccc3)c3ccccc23)C(=O)O)cc1` [Example 25, 1-benzyl-N-{[4-(but-2-ynyloxy)phenyl]sulfonyl}-D-tryptophan], the IC50 came to 2.15 µM.

For `CC#CCOc1ccc(S(=O)(=O)N[C@H](Cc2cn(Cc3ccc(C)cc3)c3ccccc23)C(=O)O)cc1` [Example 26, N-{[4-(but-2-ynyloxy)phenyl]sulfonyl}-1-(4-methylbenzyl)-D-tryptophan], the IC50 stood at 3.59 µM.

As to `CC#CCOc1ccc(S(=O)(=O)N[C@H](Cc2cn(Cc3cc(OC)cc(OC)c3)c3ccccc23)C(=O)O)cc1` [Example 36, N-{[4-(but-2-ynyloxy)phenyl]sulfonyl}-1-(3,5-dimethoxybenzyl)-D-tryptophan], the IC50 came out at 0.98 µM.

For `CC#CCOc1ccc(S(=O)(=O)N[C@H](Cc2cn(Cc3cccc(C(F)(F)F)c3)c3ccccc23)C(=O)O)cc1` [Example 40, N-{[4-(but-2-ynyloxy)phenyl]sulfonyl}-1-[3-(trifluoromethyl)benzyl]-D-tryptophan], the IC50 was determined as 2.3 µM.

`CC#CCOc1ccc(S(=O)(=O)N[C@H](Cc2cn(Cc3ccc(C(F)(F)F)cc3)c3ccccc23)C(=O)O)cc1` [Example 41, N-{[4-(but-2-ynyloxy)phenyl]sulfonyl}-1-[4-(trifluoromethyl)benzyl]-D-tryptophan]: the IC50 worked out at 4.4 µM.

As for `CC#CCOc1ccc(S(=O)(=O)N[C@H](Cc2cn(Cc3ccc(Cl)cc3)c3ccccc23)C(=O)O)cc1` [Example 42, N-{[4-(but-2-ynyloxy)phenyl]sulfonyl}-1-(4-chlorobenzyl)-D-tryptophan], the IC50 amounted to 3.45 µM.

The experiment is the same for the next values; noted with them: read-out: TACE Inhibition (%).
Consider `CC#CCOc1ccc(S(=O)(=O)N[C@@H](Cc2cn(Cc3ccccc3)c3ccc(OC)cc23)C(=O)O)cc1` [Example 48, 1-benzyl-N-{[4-(but-2-ynyloxy)phenyl]sulfonyl}-5-methoxytryptophan], for which the inhibition (in general, how much of the control response was suppressed) at 1 µM came out at 37.2%.

For the molecule `CC#CCOc1ccc(S(=O)(=O)N[C@@H](Cc2cn(Cc3ccccc3C)c3ccc(OC)cc23)C(=O)O)cc1` [Example 49, N-{[4-(but-2-ynyloxy)phenyl]sulfonyl}-5-methoxy-1-(2-methylbenzyl)tryptophan], the inhibition at 1 µM stood at 38.9%.

As for `CC#CCOc1ccc(S(=O)(=O)N[C@@H](Cc2cn(Cc3cccc(C)c3)c3ccc(OC)cc23)C(=O)O)cc1` [Example 50, N-{[4-(but-2-ynyloxy)phenyl]sulfonyl}-5-methoxy-1-(3-methylbenzyl)tryptophan], the inhibition at 1 µM came out at 30.6%.

As for `CC#CCOc1ccc(S(=O)(=O)N[C@@H](Cc2cn(Cc3ccccc3OC)c3ccc(OC)cc23)C(=O)O)cc1` [Example 51, N-{[4-(but-2-ynyloxy)phenyl]sulfonyl}-5-methoxy-1-(2-methoxybenzyl)tryptophan], the inhibition at 1 µM was 38.3%.

On to `CC#CCOc1ccc(S(=O)(=O)N[C@@H](Cc2cn(Cc3ccc(OC)cc3)c3ccc(OC)cc23)C(=O)O)cc1` [Example 53, N-{[4-(but-2-ynyloxy)phenyl]sulfonyl}-5-methoxy-1-(4-methoxybenzyl)tryptophan], for which the inhibition at 1 µM was determined as 30.6%.

For the molecule `CC#CCOc1ccc(S(=O)(=O)N[C@@H](Cc2cn(Cc3cc(OC)cc(OC)c3)c3ccc(OC)cc23)C(=O)O)cc1` [Example 54, N-{[4-(but-2-ynyloxy)phenyl]sulfonyl}-1-(3,5-dimethoxybenzyl)-5-methoxytryptophan], the inhibition at 1 µM is 38%.

For `CC#CCOc1ccc(S(=O)(=O)N[C@@H](Cc2cn(Cc3ccccc3C(F)(F)F)c3ccc(OC)cc23)C(=O)O)cc1` [Example 55, N-{[4-(but-2-ynyloxy)phenyl]sulfonyl}-5-methoxy-1-[2-(trifluoromethyl)benzyl]tryptophan], the inhibition at 1 µM stood at 31.3%.

Regarding `CC#CCOc1ccc(S(=O)(=O)N[C@@H](Cc2cn(Cc3ccc(C(F)(F)F)cc3)c3ccc(OC)cc23)C(=O)O)cc1` [Example 57, N-{[4-(but-2-ynyloxy)phenyl]sulfonyl}-5-methoxy-1-[4-(trifluoromethyl)benzyl]tryptophan], the inhibition at 1 µM was 32.1%.

On to `CC#CCOc1ccc(S(=O)(=O)N[C@@H](Cc2cn(Cc3cccc(F)c3)c3ccc(OC)cc23)C(=O)O)cc1` [Example 59, N-{[4-(but-2-ynyloxy)phenyl]sulfonyl}-1-(3-fluorobenzyl)-5-methoxytryptophan], for which the inhibition at 1 µM is 44.4%.

For the molecule `CC#CCOc1ccc(S(=O)(=O)N[C@@H](Cc2cn(Cc3ccc(F)cc3)c3ccc(OC)cc23)C(=O)O)cc1` [Example 60, N-{[4-(but-2-ynyloxy)phenyl]sulfonyl}-1-(4-fluorobenzyl)-5-methoxytryptophan], the inhibition at 1 µM was determined as 43.5%.

On to `CC#CCOc1ccc(S(=O)(=O)N[C@@H](Cc2cn(Cc3cc(F)cc(F)c3)c3ccc(OC)cc23)C(=O)O)cc1` [Example 61, N-{[4-(but-2-ynyloxy)phenyl]sulfonyl}-1-(3,5-difluorobenzyl)-5-methoxytryptophan], for which the inhibition at 1 µM is 39.5%.

Regarding `CC#CCOc1ccc(S(=O)(=O)N[C@@H](Cc2cn(Cc3ccc(Cl)cc3)c3ccc(OC)cc23)C(=O)O)cc1` [Example 62, N-{[4-(but-2-ynyloxy)phenyl]sulfonyl}-1-(4-chlorobenzyl)-5-methoxytryptophan], the inhibition at 1 µM was found to be 39.3%.

Regarding `CC#CCOc1ccc(S(=O)(=O)N[C@@H](Cc2cn(Cc3ccc(C(C)C)cc3)c3ccc(OC)cc23)C(=O)O)cc1` [Example 63, N-{[4-(but-2-ynyloxy)phenyl]sulfonyl}-1-(4-isopropylbenzyl)-5-methoxytryptophan], the inhibition at 1 µM turned out to be 28.2%.

As for `CC#CCOc1ccc(S(=O)(=O)N[C@@H](Cc2cn(Cc3ccccc3C#N)c3ccc(OC)cc23)C(=O)O)cc1` [Example 64, N-{[4-(but-2-ynyloxy)phenyl]sulfonyl}-1-(2-cyanobenzyl)-5-methoxytryptophan], the inhibition at 1 µM is 40.9%.
